Source: patent publication US9694016B2 (Novartis AG, priority 2013, dated 2017)
Where two headings read alike, the source gives them in different places. One block for each compound: values may come before it.

How the values were obtained:
b-Raf (V600E) [1] = target: T1, b-Raf (V600E) (Homo sapiens (Human), UniProt P15056, V600E); conditions: read-out: b-Raf IC-50; Table 2; AlphaScreen, 3 hours reaction
[2] = target: C-Raf TR (truncated C-Raf protein, Δ1-324 deletion mutant) (Homo sapiens (Human), UniProt P04049); type: biochemical; conditions: truncated C-Raf approximately 4 nM, ATP 1 uM, 60 min pre-incubation, 1 hour reaction
Method: biotinylated Mek, kinase dead
biotinylated Mek, Kinase dead approximately 10 nM

b-Raf (V600E) [3] = target: T1, b-Raf (V600E); experiment: biochemical

T1 sequence (P15056 whole entry V600E, the tested form may be a part): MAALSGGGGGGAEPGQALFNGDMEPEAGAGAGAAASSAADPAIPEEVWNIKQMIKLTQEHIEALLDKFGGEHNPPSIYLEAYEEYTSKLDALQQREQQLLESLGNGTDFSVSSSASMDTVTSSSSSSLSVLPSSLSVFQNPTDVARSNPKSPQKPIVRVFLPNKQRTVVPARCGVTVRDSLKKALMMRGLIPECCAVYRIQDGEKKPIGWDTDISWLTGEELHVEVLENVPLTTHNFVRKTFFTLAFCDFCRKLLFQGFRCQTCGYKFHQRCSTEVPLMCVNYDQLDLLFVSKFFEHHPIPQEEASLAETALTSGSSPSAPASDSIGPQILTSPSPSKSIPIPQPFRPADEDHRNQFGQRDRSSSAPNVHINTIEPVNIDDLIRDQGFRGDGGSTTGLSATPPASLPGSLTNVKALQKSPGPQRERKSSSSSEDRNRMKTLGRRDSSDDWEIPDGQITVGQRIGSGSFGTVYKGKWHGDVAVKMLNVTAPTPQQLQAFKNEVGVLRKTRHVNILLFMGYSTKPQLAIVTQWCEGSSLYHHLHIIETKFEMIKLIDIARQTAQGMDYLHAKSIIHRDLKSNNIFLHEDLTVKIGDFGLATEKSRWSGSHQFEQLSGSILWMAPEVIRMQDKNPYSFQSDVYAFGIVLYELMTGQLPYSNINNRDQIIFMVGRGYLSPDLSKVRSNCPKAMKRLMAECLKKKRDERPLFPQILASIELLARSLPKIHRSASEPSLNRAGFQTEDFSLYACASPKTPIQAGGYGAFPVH

SMILES: Cc1ccc(NC(=O)c2cccc(C(F)(F)F)c2)cc1-c1cncc(N2CCOCC2)n1 [Example 118, N-(4-methyl-3-(6-morpholinopyrazin-2-yl)phenyl)-3-(trifluoromethyl)benzamide]
IC50 (b-Raf (V600E) [1]): 0.7 nM
IC50 [2]: 0.308 nM

SMILES: Cc1ccc(C(=O)Nc2cccc(C(F)(F)F)c2)cc1-c1nc(N2CCOCC2)cc(N2CCOCC2)n1 [Example 14, 3-(4,6-dimorpholinopyrimidin-2-yl)-4-methyl-N-(3-(trifluoromethyl)phenyl)benzamide]
IC50 [2]: 0.803 nM

SMILES: CNCc1ccc(C(=O)Nc2ccc(C)c(-c3cc(N4CCOCC4)c4nccn4c3)c2)cc1C(F)(F)F [Example 853, N-(4-methyl-3-(8-morpholinoimidazo[1,2-a]pyridin-6-yl)phenyl)-4-((methylamino)methyl)-3-(trifluoromethyl)benzamide]
IC50 (b-Raf (V600E) [3]): 2.4 nM

SMILES: Cc1ncc(NC(=O)c2cccc(C(F)(F)F)c2)cc1-c1cc(N2CCOCC2)nc(NC[C@@H](C)O)n1 [Example 743, (R)—N-(5-(2-((2-hydroxypropyl)amino)-6-morpholinopyrimidin-4-yl)-6-methylpyridin-3-yl)-3-(trifluoromethyl)benzamide]
IC50 (b-Raf (V600E) [3]): 3.7 nM

SMILES: CCNc1nc(-c2cc(C(=O)Nc3cccc(C(F)(F)F)c3)ccc2C)cc(N2CCOCC2)n1 [Example 710, 3-(2-(ethylamino)-6-morpholinopyrimidin-4-yl)-4-methyl-N-(3-(trifluoromethyl)phenyl)benzamide]
IC50 (b-Raf (V600E) [3]): 4 nM

SMILES: Cc1ccc(C(=O)Nc2cccc(C(F)(F)F)c2)cc1-c1ccnc(N2CCOCC2)c1 [Example 63, 4-Methyl-3-(2-morpholinopyridin-4-yl)-N-(3-(trifluoromethyl)phenyl)benzamide]
IC50 (b-Raf (V600E) [1]): 2.1 nM
IC50 [2]: 0.508 nM

SMILES: CNCc1ccc(C(=O)Nc2cnc(C)c(-c3cc(N4CCOCC4)c4nccn4c3)c2)cc1C(F)(F)F [Example 885, N-(6-methyl-5-(8-morpholinoimidazo[1,2-a]pyridin-6-yl)pyridin-3-yl)-4-((methylamino)methyl)-3-(trifluoromethyl)benzamide]
IC50 (b-Raf (V600E) [3]): 12.3 nM

SMILES: Cc1ncc(NC(=O)c2cccc(C(F)(F)F)c2)cc1-c1cnc(OC[C@H](C)O)c(N2CCOCC2)c1 [Example 1022, (S)—N-(6′-(2-hydroxypropoxy)-2-methyl-5′-morpholino-[3,3′-bipyridin]-5-yl)-3-(trifluoromethyl)benzamide]
IC50 (b-Raf (V600E) [3]): 1.49 nM

SMILES: Cc1ccc(NC(=O)c2cccc(C(F)(F)F)c2)cc1-c1nc2c(c(N3CCOCC3)n1)CCNC2 [Example 834, N-(4-methyl-3-(4-morpholino-5,6,7,8-tetrahydropyrido[3,4-d]pyrimidin-2-yl)phenyl)-3-(trifluoromethyl)benzamide]
IC50 (b-Raf (V600E) [3]): 0.6 nM

SMILES: Cc1ccc(NC(=O)c2ccnc(C(C)(F)F)c2)cc1-c1cc(N2CCOCC2)n(C)c(=O)c1 [Example 471, 2-(1,1-difluoroethyl)-N-(4-methyl-3-(1-methyl-6-morpholino-2-oxo-1,2-dihydropyridin-4-yl)phenyl)isonicotinamide]
IC50 (b-Raf (V600E) [3]): 1 nM

SMILES: Cc1ccc(NC(=O)c2cnnc(C(F)(F)F)c2)cc1-c1cc(N2CCOCC2)c(OC2CCOCC2)nn1 [Example 577, N-(4-methyl-3-(5-morpholino-6-((tetrahydro-2H-pyran-4-yl)oxy)pyridazin-3-yl)phenyl)-6-(trifluoromethyl)pyridazine-4-carboxamide]
IC50 (b-Raf (V600E) [3]): 0.6 nM

SMILES: Cc1ccc(NC(=O)c2cccc(C(F)(F)F)c2)cc1-c1csc(N2CCOCC2)n1 [Example 199, N-(4-methyl-3-(2-morpholinothiazol-4-yl)phenyl)-3-(trifluoromethyl)benzamide]
IC50 (b-Raf (V600E) [1]): 3.6 nM
IC50 [2]: 1.29 nM

Now from value to compound:

IC50 (b-Raf (V600E) [3]): 1.3 nM
SMILES: Cc1ccc(NC(=O)c2ccnc(C(C)(C)C#N)c2)cc1-c1cc(N2CCOCC2)c(OC(C)C)nn1 [Example 596, 2-(2-cyanopropan-2-yl)-N-(3-(6-isopropoxy-5-morpholinopyridazin-3-yl)-4-methylphenyl)isonicotinamide]

IC50 (b-Raf (V600E) [3]): 0.9 nM
SMILES: CCOc1nnc(-c2cc(NC(=O)c3cccc(S(C)(=O)=O)c3)ccc2C)cc1N1CCOCC1 [Example 559, N-(3-(6-ethoxy-5-morpholinopyridazin-3-yl)-4-methylphenyl)-3-(methylsulfonyl)benzamide]

IC50 (b-Raf (V600E) [1]): 0.4 nM
IC50 [2]: 0.27 nM
SMILES: Cc1ccc(NC(=O)c2cccc(C(F)(F)F)c2)cc1-c1cn(C)c(=O)c(N2CCOCC2)n1 [Example 119, N-(4-methyl-3-(4-methyl-6-morpholino-5-oxo-4,5-dihydropyrazin-2-yl)phenyl)-3-(trifluoromethyl)benzamide]

IC50 (b-Raf (V600E) [3]): 18.4 nM
SMILES: Cc1ccc(NC(=O)c2cc(C3CC3)nn2C)cc1-c1cc2[nH]cnc2c(N2CCOCC2)n1 [Example 818, 3-cyclopropyl-1-methyl-N-(4-methyl-3-(4-morpholino-1H-imidazo[4,5-c]pyridin-6-yl)phenyl)-1H-pyrazole-5-carboxamide]

IC50 (b-Raf (V600E) [3]): 7.7 nM
SMILES: Cc1ccc(NC(=O)c2cccc(-c3nnco3)c2)cc1-c1cc2[nH]cnc2c(N2CCOCC2)n1 [Example 822, N-(4-methyl-3-(4-morpholino-1H-imidazo[4,5-c]pyridin-6-yl)phenyl)-3-(1,3,4-oxadiazol-2-yl)benzamide]

IC50 (b-Raf (V600E) [3]): 200 nM
SMILES: Cc1cc(C(=O)Nc2ccc(C)c(-c3cc4[nH]cnc4c(N4CCOCC4)n3)c2)n(C)n1 [Example 817, 1,3-dimethyl-N-(4-methyl-3-(4-morpholino-1H-imidazo[4,5-c]pyridin-6-yl)phenyl)-1H-pyrazole-5-carboxamide]

IC50 (b-Raf (V600E) [3]): 100 nM
SMILES: Cc1ccc(NC(=O)c2cn(C)nc2C)cc1-c1cc2[nH]cnc2c(N2CCOCC2)n1 [Example 815, 1,3-dimethyl-N-(4-methyl-3-(4-morpholino-1H-imidazo[4,5-c]pyridin-6-yl)phenyl)-1H-pyrazole-4-carboxamide]
